# In patent US6615842B1, “Methods for removing nucleophilic toxins from tobacco smoke” (Cerami Consulting Corp., priority 1998, dated 2003):
# Assay: Removal of tar from tobacco smoke measured colorimetrically
# Settings: 250 mg portions of compound as filter; smoke from one cigarette drawn through 3 ml water; read at 405 nm; compared with control cigarette
# Protocol: The smoke from one cigarette was drawn through the filter material and then through 3 mls of distilled water using a water-pipe smoking device which was constructed from a 25 ml glass Erlenmeyer flask attached to a vacuum source with an air flow rate of approximately 35 ml/min. Three 100 microliter aliquots were removed from each flask, placed into ELISA plate wells and read in an ELISA plate reader at 405 nm. The percentage or tar removed is based on a comparison between the cigarette comprising the filter containing the test agent and an appropriate control cigarette.
# The smoke from 1 of each type of filter cigarette was then drawn through 3 mls of distilled water using a water-pipe smoking device which was constructed from a small (25 ml) glass Erlenmeyer flask attached to a vacuum source with an air flow rate of approximately 35 ml/min. Three 100 microliter aliquots were removed from each flask, placed into ELISA plated wells and read in an ELISA plate reader at 405 nm.
row,Structure (SMILES),% TAR REMOVAL
1,C[C@H](NC(=O)OC(C)(C)C)C(=O)ON1C(=O)CCC1=O [N-α-t-BOC-L-alanine-N-hydroxysuccinimide ester],25%
2,CC(C)(C)OC(=O)N[C@@H](CCC(=O)ON1C(=O)CCC1=O)C(=O)OCc1ccccc1 [N-α-t-BOC-L-glutamic-α-benzyl ester-γ-N-hydroxysuccinimide ester],96.7%
3,O=C1c2ccccc2C(=O)C1(O)C1(O)C(=O)c2ccccc2C1=O [Hydrindantin],95%
4,O=C1CN(CCN2CC(=O)OC(=O)C2)CC(=O)O1 [Ethylenediaminetetraacetic dianhydride],98.2%
5,O=C1c2ccccc2C(=O)C1(O)O [Ninhydrin],83%
6,CC(=O)O[C@H]1C(=O)OC(=O)[C@@H]1OC(C)=O [(+)-Diacetyl-1-tartaric anhydride],32.1%
7,CC(C)(C)OC(=O)NCCCCCC(=O)ON1C(=O)CCC1=O [BOC-ε-aminocaproic acid-N-hydroxysuccinimide ester],74%
8,O=Cc1ccccc1C=O [O-phthaldialdehyde],84%
9,"CC1(C)CC(=O)CC(=O)C1 [(5,5-dimethyl-1,3-cyclohexanedione, 5,5-dimethyl-1,3-cyclohexanedione]",26%
10,CCCCCCCCCC=CCC1CC(=O)OC1=O (stereo not drawn) [2-Dodecen-1-ylsuccinic anhydride],98.2%
11,O=CC(=O)c1ccccc1 [Phenylglyoxal],53%
12,"O=C1OC(=O)C2C3C=CC(C12)C1C(=O)OC(=O)C31 (stereo not drawn) [Bicyclo(2,2,2)oct-7-ene-2,3,5,6-tetracarboxylic dianhydride]",98.2%
